Experimental data: article PMC8391312 (Biomedicines, 2021)

System: Cav1.2/1.3 channels
Assay type: cell-based, rat

## [Cl][Cd][Cl] [Cd^2+, CdCl2]
  block of current amplitude: 98 ± 0.8%
